Source: patent publication US7399748B2, “Antitumor therapy comprising distamycin derivatives” (Nerviano Medical Sciences S.r.l., priority 2001, dated 2008)

Test system: solid tumors
Test: Phase I trial, iv single administration every three weeks in patients with solid tumors
Type: in vivo
Details: one patient suffering from gastrointestinal sarcoma, dose level 5.1 mg/m^2, iv single administration every three weeks
Description: A phase I pharmacological trial was carried out to investigate the iv administration of the title compound given as a single administration every three weeks to patients with solid tumors.
The starting dose of 0.85 mg/m^2 was initially escalated in an accelerated design (100% dose increase; 1 patient/dose level) and then by a conventional dose escalation in 3-6 patient cohorts. 11 patients have been entered so far and 25 cycles have been evaluated for toxicity at dose levels of 0.85, 1.7, 3.4, 5.1 and 7.5 mg/M^2.

SMILES: C=C(Br)C(=O)Nc1cc(C(=O)Nc2cc(C(=O)Nc3cc(C(=O)Nc4cc(C(=O)NCCNC(=N)N)n(C)c4)n(C)c3)n(C)c2)n(C)c1.Cl [PNU 166196, N-(5-{[(5-{[(5-{[(2-{[amino(imino)methyl]amino}ethyl)amino]carbonyl}-1-methyl-1H-pyrrol-3-yl)amino]carbonyl}-1-methyl-1H-pyrrol-3-yl)amino]carbonyl}-1-methyl-1H-pyrrol-3-yl)-4-[(2-bromoacryloyl)amino]-11-methyl-1H-pyrrole-2-carboxamide hydrochloride]
- tumor response: partial response
